Values quoted from earlier work, collected in patent US20230137840A1, “MINT MASK AND METHODS OF USE THEREOF” (Georgetown University, priority 2016, published 2023).

Experiments:
[1] = test system: cough; conditions: guinea pigs
[2] = test system: bronchoconstriction; conditions: guinea pigs
[3] = test system: cough reflex; conditions: menthol vapor; taste of sucrose
[4] = target: transient receptor potential ankyrin 1 (TRPA1) (Homo sapiens, UniProt O75762); conditions: irritant-sensing channel
[5] = test system: chemical irritants; conditions: menthol vapor; irritants including acrolein, acetic acid, cyclohexanone
[6] = test system: bronchial smooth muscle
[7] = test system: cough after fiberoptic bronchoscopy; conditions: premedication with 1% menthol inhalation
[8] = test system: asthmatics; conditions: nebulized, 10 mg twice daily for four weeks; 23 asthmatics
[9] = test system: bronchi
[10] = test system: nasal resistance; conditions: several studies
[11] = target: transient receptor potential melastatin 8 (TRPM8) (Homo sapiens, UniProt Q7Z2W7); conditions: present in cold-sensitive sensory neurons
[12] = test system: upper airway resistance in normal subjects; conditions: inhaled; ten normal subjects
[13] = test system: patients with chronic cough; conditions: menthol inhalation

transient receptor potential ankyrin 1 (TRPA1), sequence (O75762 whole entry, species assumed): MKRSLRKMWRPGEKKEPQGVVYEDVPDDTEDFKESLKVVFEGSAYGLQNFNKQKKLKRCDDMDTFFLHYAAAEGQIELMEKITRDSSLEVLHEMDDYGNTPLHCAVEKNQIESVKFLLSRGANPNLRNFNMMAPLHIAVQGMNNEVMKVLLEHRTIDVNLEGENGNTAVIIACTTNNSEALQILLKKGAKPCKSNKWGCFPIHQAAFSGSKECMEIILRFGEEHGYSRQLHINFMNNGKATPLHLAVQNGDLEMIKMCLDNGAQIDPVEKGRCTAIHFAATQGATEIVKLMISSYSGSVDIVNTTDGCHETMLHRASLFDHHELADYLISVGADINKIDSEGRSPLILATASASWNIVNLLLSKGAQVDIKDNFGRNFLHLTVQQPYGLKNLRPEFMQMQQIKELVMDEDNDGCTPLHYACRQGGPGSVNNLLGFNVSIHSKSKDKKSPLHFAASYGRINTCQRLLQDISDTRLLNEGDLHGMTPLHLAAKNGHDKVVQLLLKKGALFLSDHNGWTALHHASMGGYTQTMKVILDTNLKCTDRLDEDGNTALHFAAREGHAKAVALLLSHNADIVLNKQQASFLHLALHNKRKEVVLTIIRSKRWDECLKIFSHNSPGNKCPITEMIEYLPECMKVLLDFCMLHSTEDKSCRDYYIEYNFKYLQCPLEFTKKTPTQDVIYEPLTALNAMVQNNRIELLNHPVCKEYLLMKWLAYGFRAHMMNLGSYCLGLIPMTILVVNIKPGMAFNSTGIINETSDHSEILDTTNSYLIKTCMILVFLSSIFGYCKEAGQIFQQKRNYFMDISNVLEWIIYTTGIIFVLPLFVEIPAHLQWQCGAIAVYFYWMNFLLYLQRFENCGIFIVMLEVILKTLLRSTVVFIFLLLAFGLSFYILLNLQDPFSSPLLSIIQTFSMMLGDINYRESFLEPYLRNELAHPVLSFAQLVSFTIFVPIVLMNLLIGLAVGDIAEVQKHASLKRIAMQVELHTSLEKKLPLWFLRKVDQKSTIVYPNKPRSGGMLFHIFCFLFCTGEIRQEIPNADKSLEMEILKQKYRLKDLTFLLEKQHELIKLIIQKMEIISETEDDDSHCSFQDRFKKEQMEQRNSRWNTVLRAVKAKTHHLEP
transient receptor potential melastatin 8 (TRPM8), sequence (Q7Z2W7 whole entry, species assumed): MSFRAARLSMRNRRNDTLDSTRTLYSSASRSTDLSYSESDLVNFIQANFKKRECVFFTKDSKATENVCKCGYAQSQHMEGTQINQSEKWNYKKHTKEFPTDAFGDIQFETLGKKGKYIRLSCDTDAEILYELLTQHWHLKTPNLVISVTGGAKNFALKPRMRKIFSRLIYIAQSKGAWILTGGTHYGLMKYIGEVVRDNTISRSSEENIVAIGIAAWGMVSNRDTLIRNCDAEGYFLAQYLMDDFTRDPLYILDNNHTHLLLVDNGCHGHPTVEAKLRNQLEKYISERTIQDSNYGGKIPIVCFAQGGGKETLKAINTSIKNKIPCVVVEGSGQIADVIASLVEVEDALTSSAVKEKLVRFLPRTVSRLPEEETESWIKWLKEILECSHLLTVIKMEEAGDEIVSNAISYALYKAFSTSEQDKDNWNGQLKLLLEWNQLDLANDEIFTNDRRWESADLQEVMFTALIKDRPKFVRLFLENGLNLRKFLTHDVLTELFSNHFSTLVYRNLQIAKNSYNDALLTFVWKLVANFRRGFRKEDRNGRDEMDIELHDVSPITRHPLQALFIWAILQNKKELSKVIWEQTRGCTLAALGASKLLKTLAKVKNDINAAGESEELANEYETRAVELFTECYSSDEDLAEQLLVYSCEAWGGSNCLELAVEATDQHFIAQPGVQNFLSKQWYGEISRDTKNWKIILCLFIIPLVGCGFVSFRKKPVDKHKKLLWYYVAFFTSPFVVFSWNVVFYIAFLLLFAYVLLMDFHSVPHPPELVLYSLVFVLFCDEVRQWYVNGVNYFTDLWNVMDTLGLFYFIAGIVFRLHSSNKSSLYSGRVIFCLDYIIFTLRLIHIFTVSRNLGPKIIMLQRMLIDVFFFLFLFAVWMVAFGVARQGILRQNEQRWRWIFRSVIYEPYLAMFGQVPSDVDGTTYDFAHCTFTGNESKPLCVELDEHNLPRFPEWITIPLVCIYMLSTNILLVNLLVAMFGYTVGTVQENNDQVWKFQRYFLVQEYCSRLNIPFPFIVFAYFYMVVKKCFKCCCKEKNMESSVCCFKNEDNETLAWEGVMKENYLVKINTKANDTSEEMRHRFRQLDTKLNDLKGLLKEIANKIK

Structure (SMILES): CC(C)[C@@H]1CC[C@@H](C)C[C@H]1O [menthol, (1R,2S,5R)-2-Isopropyl-5-methylcyclohexanol]
- antitussive (cough suppressant) effect [1]: antitussive (cough suppressant) effects
- capsaicin-induced bronchoconstriction [2]: attenuates
- neurokinin A-induced bronchoconstriction [2]: attenuates
- cough reflex to capsaicin challenge [3]: reduced cough reflex
- interaction with TRPA1 [4]: interacts
- reactivity to chemical irritants [5]: reduces reactivity
- bronchial contraction due to high extracellular potassium [6]: inhibits
- bronchial contraction due to methacholine [6]: inhibits
- effect on cough after fiberoptic bronchoscopy [7]: no effect
- diurnal variation in peak expiratory flow rate (PEER) [8]: decreased
- effect on FEV1 (forced expiratory volume at 1 second) [8]: no effect
- effect on VC (vital capacity) [8]: no effect
- use of metered dose inhalers [8]: reduced use
- wheezing episodes [8]: reduced wheezing episodes
- relaxation of bronchi preconstricted with acetylcholine or potassium chloride [9]: relaxes
- effect on nasal resistance [10]: no effect
- interaction with TRPM8 [11]: interacts
- effect on upper airway resistance [12]: no effect
- cough sensitivity to inhaled capsaicin [13]: reduced cough sensitivity
- effect on inspiratory flows [13]: had an effect

Structure (SMILES): OC[C@H]1O[C@@](CO)(O[C@H]2O[C@H](CO)[C@@H](O)[C@H](O)[C@H]2O)[C@@H](O)[C@@H]1O [sucrose]
- cough reflex to capsaicin challenge [3]: reduced cough reflex
